According to patent US8729082B2, “Substituted imidazoquinoxalines” (Bayer Intellectual Property GmbH, priority 2009, dated 2014):

biological target: T1, human kinase Mps-1 (Homo sapiens, UniProt P33981); test: Mps-1 kinase assay (HTRF); type: biochemical; details: lowATP; mean; read-out: Mps1 lowATP mean IC50
T1 construct: N-terminally GST-tagged human full length recombinant Mps-1 kinase; purchased Invitrogen, Karslruhe, Germany PV4071
T1 sequence (P33981 1-857): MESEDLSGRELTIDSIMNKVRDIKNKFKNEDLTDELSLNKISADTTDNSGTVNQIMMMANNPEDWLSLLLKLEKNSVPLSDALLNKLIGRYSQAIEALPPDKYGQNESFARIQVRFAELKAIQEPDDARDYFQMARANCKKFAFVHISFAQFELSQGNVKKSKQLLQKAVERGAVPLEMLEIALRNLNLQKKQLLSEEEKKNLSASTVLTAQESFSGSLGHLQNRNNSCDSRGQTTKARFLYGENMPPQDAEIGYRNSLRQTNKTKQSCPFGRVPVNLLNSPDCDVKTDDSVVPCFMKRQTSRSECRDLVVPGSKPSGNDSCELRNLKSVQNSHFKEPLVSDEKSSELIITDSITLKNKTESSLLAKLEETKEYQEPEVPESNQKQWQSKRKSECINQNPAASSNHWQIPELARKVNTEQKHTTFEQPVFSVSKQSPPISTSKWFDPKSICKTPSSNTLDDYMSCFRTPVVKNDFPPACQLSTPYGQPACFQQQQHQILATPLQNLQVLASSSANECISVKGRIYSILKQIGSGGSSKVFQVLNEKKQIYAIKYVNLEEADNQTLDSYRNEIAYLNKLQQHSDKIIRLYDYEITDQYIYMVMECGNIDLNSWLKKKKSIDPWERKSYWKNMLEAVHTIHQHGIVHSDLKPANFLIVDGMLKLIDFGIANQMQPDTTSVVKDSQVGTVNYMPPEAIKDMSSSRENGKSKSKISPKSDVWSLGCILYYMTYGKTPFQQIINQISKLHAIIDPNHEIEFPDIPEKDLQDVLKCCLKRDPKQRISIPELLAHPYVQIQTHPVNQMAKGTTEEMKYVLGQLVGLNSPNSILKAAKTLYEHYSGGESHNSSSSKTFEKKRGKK
In short: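 HTRF readout: EDTA-stopped reactions incubated 1 h with europium anti-phospho(Ser/Thr) antibody and streptavidin-XLent, emission ratio 665/620 nm after 350 nm excitation. Kinase step: compound pre-bound 15 min to ~1 nM GST-Mps-1, then 60 min at 22 °C with ATP and biotin-peptide substrate; inhibition scaled between no-inhibitor (0%) and no-enzyme (100%) controls.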

Row | Compound | IC50 [µM]
1 | COCCNc1nc2ccccc2n2c(-c3ccc(C(=O)NC4CC4)cc3)cnc12 [Example 2-12, N-cyclopropyl-4-{4-[(2-methoxyethyl)amino]imidazo[1,2-a]quinoxalin-1-yl}benzamide] | 0.18
2 | O=C(NC1CC1)c1ccc(-c2cnc3c(NCc4ccc(F)cc4)nc4ccccc4n23)cc1 [Example 2-15, N-cyclopropyl-4-{4-[(4-fluorobenzyl)amino]imidazo[1,2-a]quinoxalin-1-yl}benzamide] | 0.0563
3 | O=C(NC1CC1)c1ccc(-c2cnc3c(NCc4cccs4)nc4ccccc4n23)cc1 [Example 2-18, N-cyclopropyl-4-{4-[(thiophen-2-ylmethyl)amino]imidazo[1,2-a]quinoxalin-1-yl}benzamide] | 0.0466
4 | CCNc1nc2ccccc2n2c(-c3ccc(C(=O)NC4CC4)cc3)cnc12 [Example 2-19, N-cyclopropyl-4-[4-(ethylamino)imidazo[1,2-a]quinoxalin-1-yl]benzamide] | 0.094
5 | O=C(NC1CC1)c1ccc(-c2cnc3c(NCC4CC4)nc4ccccc4n23)cc1 [Example 2-23, N-cyclopropyl-4-{4-[(cyclopropylmethyl)amino]imidazo[1,2-a]quinoxalin-1-yl}benzamide] | 0.0241
6 | O=C(NC1CC1)c1ccc(-c2cnc3c(NCCN4CCOCC4)nc4ccccc4n23)cc1 [Example 2-24, N-cyclopropyl-4-(4-{[2-(morpholin-4-yl)ethyl]amino}imidazo[1,2-a]quinoxalin-1-yl)benzamide] | 0.127
7 | NS(=O)(=O)c1ccc(CNc2nc3ccccc3n3c(-c4ccc(C(=O)NC5CC5)cc4)cnc23)cc1 [Example 2-25, N-cyclopropyl-4-{4-[(4-sulfamoylbenzyl)amino]imidazo[1,2-a]quinoxalin-1-yl}benzamide] | 0.16
8 | O=C(NC1CC1)c1ccc(-c2cnc3c(NCc4ccc5c(c4)OCO5)nc4ccccc4n23)cc1 [Example 2-28, 4-{4-[(1,3-benzodioxol-5-ylmethyl)amino]imidazo[1,2-a]quinoxalin-1-yl}-N-cyclopropylbenzamide] | 0.0614
9 | O=C(NC1CC1)c1ccc(-c2cnc3c(NCCCCN4CCCC4)nc4ccccc4n23)cc1 [Example 2-31, N-cyclopropyl-4-(4-{[4-(pyrrolidin-1-yl)butyl]amino}imidazo[1,2-a]quinoxalin-1-yl)benzamide] | 0.321
10 | CS(=O)(=O)Nc1ccc(Nc2nc3ccccc3n3c(-c4ccc(C(=O)NC5CC5)cc4)cnc23)cc1 [Example 2-32, N-cyclopropyl-4-[4-({4-[(methylsulfonyl)amino]phenyl}amino)imidazo[1,2-a]quinoxalin-1-yl]benzamide] | 0.202
11 | O=C(NC1CC1)c1ccc(-c2cnc3c(NCCN4CCNC4=O)nc4ccccc4n23)cc1 [Example 2-33, N-cyclopropyl-4-(4-{[2-(2-oxoimidazolidin-1-yl)ethyl]amino}imidazo[1,2-a]quinoxalin-1-yl)benzamide] | 1.15
12 | N#Cc1ccc(CNc2nc3ccccc3n3c(-c4ccc(C(=O)NC5CC5)cc4)cnc23)cc1 [Example 2-34, 4-{4-[(4-cyanobenzyl)amino]imidazo[1,2-a]quinoxalin-1-yl}-N-cyclopropylbenzamide] | 0.287
13 | Cn1ccc(Nc2nc3ccccc3n3c(-c4ccc(C(=O)NC5CC5)cc4)cnc23)n1 [Example 2-37, N-cyclopropyl-4-{4-[(1-methyl-1H-pyrazol-3-yl)amino]imidazo[1,2-a]quinoxalin-1-yl}benzamide] | 1.05
14 | NS(=O)(=O)CCNc1nc2ccccc2n2c(-c3ccc(C(=O)NC4CC4)cc3)cnc12 [Example 2-38, N-cyclopropyl-4-{4-[(2-sulfamoylethyl)amino]imidazo[1,2-a]quinoxalin-1-yl}benzamide] | 0.0422
15 | COc1cc(C(=O)NC2CCN(C)CC2)ccc1Nc1nc2ccccc2n2c(-c3ccc(C(=O)NC4CC4)cc3)cnc12 [Example 2-39, 4-({1-[4-(cyclopropylcarbamoyl)phenyl]imidazo[1,2-a]quinoxalin-4-yl}amino)-3-methoxy-N-(1-methylpiperidin-4-yl)benzamide] | 0.786
16 | CCCNc1nc2ccc(F)cc2n2c(-c3ccc(C(=O)NC4CC4)cc3)cnc12 [Example 2-40, N-cyclopropyl-4-[8-fluoro-4-(propylamino)imidazo[1,2-a]quinoxalin-1-yl]benzamide] | 0.0285
17 | O=C(NC1CC1)c1ccc(-c2cnc3c(NCCO)nc4ccc(F)cc4n23)cc1 [Example 2-41, N-cyclopropyl-4-{8-fluoro-4-[(2-hydroxyethyl)amino]imidazo[1,2-a]quinoxalin-1-yl}benzamide] | 0.212
18 | O=C(NC1CC1)c1ccc(-c2cnc3c(NCCCN4CCOCC4)nc4ccc(F)cc4n23)cc1 [Example 2-42, N-cyclopropyl-4-(8-fluoro-4-{[3-(morpholin-4-yl)propyl]amino}imidazo[1,2-a]quinoxalin-1-yl)benzamide] | 0.335
19 | CC(C)CCNc1nc2ccc(F)cc2n2c(-c3ccc(C(=O)NC4CC4)cc3)cnc12 [Example 2-43, N-cyclopropyl-4-{8-fluoro-4-[(3-methylbutyl)amino]imidazo[1,2-a]quinoxalin-1-yl}benzamide] | 0.0359

More lines, now with the values ahead:

Row | IC50 [µM] | Compound
20 | 0.334 | COc1ccccc1CNc1nc2ccccc2n2c(-c3ccc(C(=O)NC4CC4)cc3)cnc12 [Example 2-13, N-cyclopropyl-4-{4-[(2-methoxybenzyl)amino]imidazo[1,2-a]quinoxalin-1-yl}benzamide]
21 | 0.0721 | O=C(NC1CC1)c1ccc(-c2cnc3c(NCc4ccccc4F)nc4ccccc4n23)cc1 [Example 2-14, N-cyclopropyl-4-{4-[(2-fluorobenzyl)amino]imidazo[1,2-a]quinoxalin-1-yl}benzamide]
22 | 0.0675 | O=C(NC1CC1)c1ccc(-c2cnc3c(NCc4ccccc4)nc4ccccc4n23)cc1 [Example 2-16, 4-[4-(benzylamino)imidazo[1,2-a]quinoxalin-1-yl]-N-cyclopropylbenzamide]
23 | 0.565 | COc1ccc(CCNc2nc3ccccc3n3c(-c4ccc(C(=O)NC5CC5)cc4)cnc23)cc1 [Example 2-17, N-cyclopropyl-4-(4-{[2-(4-methoxyphenyl)ethyl]amino}imidazo[1,2-a]quinoxalin-1-yl)benzamide]
24 | 0.744 | CN(C)CCCNc1nc2ccccc2n2c(-c3ccc(C(=O)NC4CC4)cc3)cnc12 [Example 2-20, N-cyclopropyl-4-(4-{[3-(dimethylamino)propyl]amino}imidazo[1,2-a]quinoxalin-1-yl)benzamide]
25 | 0.0481 | NS(=O)(=O)c1ccc(CCNc2nc3ccccc3n3c(-c4ccc(C(=O)NC5CC5)cc4)cnc23)cc1 [Example 2-21, N-cyclopropyl-4-(4-{[2-(4-sulfamoylphenyl)ethyl]amino}imidazo[1,2-a]quinoxalin-1-yl)benzamide]
26 | 0.312 | O=C(NC1CC1)c1ccc(-c2cnc3c(NCCc4cccc(F)c4)nc4ccccc4n23)cc1 [Example 2-22, N-cyclopropyl-4-(4-{[2-(3-fluorophenyl)ethyl]amino}imidazo[1,2-a]quinoxalin-1-yl)benzamide]
27 | 0.0996 | O=C(NC1CC1)c1ccc(-c2cnc3c(NCc4cccnc4)nc4ccccc4n23)cc1 [Example 2-26, N-cyclopropyl-4-{4-[(pyridin-3-ylmethyl)amino]imidazo[1,2-a]quinoxalin-1-yl}benzamide]
28 | 0.282 | O=C(NC1CC1)c1ccc(-c2cnc3c(NCCCc4ccccc4)nc4ccccc4n23)cc1 [Example 2-27, N-cyclopropyl-4-{4-[(3-phenylpropyl)amino]imidazo[1,2-a]quinoxalin-1-yl}benzamide]
29 | 0.443 | O=C(NC1CC1)c1ccc(-c2cnc3c(NCCOc4ccccc4)nc4ccccc4n23)cc1 [Example 2-29, N-cyclopropyl-4-{4-[(2-phenoxyethyl)amino]imidazo[1,2-a]quinoxalin-1-yl}benzamide]
30 | 0.121 | O=C(NC1CC1)c1ccc(-c2cnc3c(NCCc4ccncc4)nc4ccccc4n23)cc1 [Example 2-30, N-cyclopropyl-4-(4-{[2-(pyridin-4-yl)ethyl]amino}imidazo[1,2-a]quinoxalin-1-yl)benzamide]
31 | 0.539 | O=C(NC1CC1)c1ccc(-c2cnc3c(NCCc4ccc(F)cc4)nc4ccccc4n23)cc1 [Example 2-35, N-cyclopropyl-4-(4-{[2-(4-fluorophenyl)ethyl]amino}imidazo[1,2-a]quinoxalin-1-yl)benzamide]
32 | 0.129 | O=C(NC1CC1)c1ccc(-c2cnc3c(NCCc4cccnc4)nc4ccccc4n23)cc1 [Example 2-36, N-cyclopropyl-4-(4-{[2-(pyridin-3-yl)ethyl]amino}imidazo[1,2-a]quinoxalin-1-yl)benzamide]
